Measured values from patent US10369138B2, “Monobactam organic compounds for the treatment of bacterial infections” (Novartis AG, priority 2014, dated 2019).
Values after ≈ are worked out from the molar mass of the structure shown. Read-outs that look alike come from different tables or passages of the source.

How the values were obtained:
E. coli containing KPC-2 = experiment: MIC by broth microdilution, E. coli containing KPC-2 (Ec KPC2 Iso); format: cell-based; details: Escherichia coli, read-out: Ec KPC2 Iso (MIC), E. coli containing KPC-2 (carbapenemase from Klebsiella pneumoniae)
Description: (§1) Bacterial isolates were cultivated from −70° C. frozen stocks by two consecutive overnight passages at 35° C. in ambient air on 5% blood agar (Remel, Lenexa, Kans.). Quality control and P. aeruginosa ATCC 27853) is from the American Type Culture Collection (ATCC; Rockville, Md.) and PAO1 was received from Dr. K. Poole.
Strain NB27273 (BW25113 pspB::Km^r) was obtained from the Keio transposon insertion collection. The strain has the pspB gene replaced by a kanamycin resistance marker (BW25113 pspB::Km^r). This strain was cured of the transposon in pspB via FLP recombinase using published methodology. The resulting strain, BW25113 pspB, was used as a host for multicopy vectors expressing key β-lactamases. Multicopy plasmids directing constitutive expression of β-lactamases were established as follows: Synthetic, codon optimized genes encoding E. coli KPC2 and SHV12 β-lactamases were made by DNA2.0 (Palo Alto, Calif.). Each of the synthetic fragments were designed to contain NotI and NcoI restriction sites at their termini, allowing ligation into a NotI/NcoI digested pET28a(+) derivative for protein expression. […] The codon optimized nucleotide sequences and relevant primer recognition information is shown below:
The PCR products were then digested with XhoI and EcoRI and ligated into similarly digested plasmid pAH63-pstS(BlaP). Plasmid pAH63-pstS(BlaP) is a derivative of plasmid pAH63 (J Bacteriol: 183(21): 6384-6393) made by cloning the TEM-1 (bla) promoter and signal peptide encoding region from plasmid pBAD (J Bacteriol. 1995 July 177(14):4121-30) into plasmid pAH63. This fragment was PCR amplified from pBAD using primer pair E192 (ttca[…]) (SEQ ID NO:13) and E194 ([…]) (SEQ ID NO:14), digested with PstI and BamHI and inserted into similarly digested plasmid pAH63. Therefore, expression of β-lactamases from pAH63-pstS(BlaP) based constructs is constitutive and the signal sequence is provided to direct these proteins to the periplasm. Plasmid pAH63 based vectors are used for insertion into the genome in single copy, however, to provide higher expression levels to allow more sensitive detection of the susceptibility of compounds to the β-lactamases, the expression inserts contained in these vectors were moved to the replicative multicopy vector pBAD-Kan (J Bacteriol. 1995 July 177(14):4121-30). To accomplish this, the inserts encompassing the β-lactamase genes, with the associated TEM promoter and signal sequences, were PCR amplified from their corresponding vectors using primer E269 (ccg[…]) (SEQ ID NO:15) and E202 (aatc[…]) (SEQ ID NO:16) for the KPC2 construct and E204 (aatc[…]) (SEQ ID NO:17) for the SHV12 construct. These fragments were then digested with XbaI and EcoRI, and each was inserted into pBAD18-kan that had been digested with the same enzymes to generate a pair of multicopy vectors expressing KPC2 and SHV12 respectively. These vectors were transformed into BW25113 pspB to generate strains NB27273-CDY0033 (expressing KPC2) and NB27273-CDY0030 (expressing SHV12). The pBAD18-kan vector also contains the TEM promoter region and signal sequence, (but lacks any intact β-lactamase genes) and was transformed into BW25113 pspB using standard protocols to generate the control strain NB27273-CDY0026. Expression of the β-lactamases was confirmed by verifying decreased susceptibility to example test antibiotics that are known substrates of KPC2 or SHV12. Susceptibility Testing
Minimal Inhibitory Concentrations (MICs) were determined by the broth microdilution method in accordance with Clinical and Laboratories Institute (CLSI) guidelines. In brief, fresh overnight bacterial cultures were suspended in sterile saline, and adjusted to a 0.5 McFarland turbidity standard. Bacterial suspensions were then diluted in cation adjusted Mueller-Hinton Broth (MHB II; BBL) to yield a final inoculum of approximately 5×10^5 colony-forming units (CFU)/mL. […]

E. coli strain 25922 = experiment: MIC by broth microdilution, E. coli strain 25922; format: cell-based
Description: as §1
Minimal Inhibitory Concentrations (MICs) were determined by the broth microdilution method in accordance with Clinical and Laboratories Institute (CLSI) guidelines. In brief, fresh overnight bacterial cultures were suspended in sterile saline, and adjusted to a 0.5 McFarland turbidity standard. Bacterial suspensions were then diluted in cation adjusted Mueller-Hinton Broth (MHB II; BBL) to yield a final inoculum of approximately 5×10^5 colony-forming units (CFU)/mL. A master plate of antibiotics was prepared at a concentration equivalent to hundred-fold the highest desired final concentration in 100% dimethyl sulfoxide (DMSO). The master antibiotic plate was then diluted by serial twofold dilution with a multichannel pipette. The resulting dilution series of compounds were diluted 1:10 with sterile water leading to a 10% DMSO final concentration. A volume of 10 μL of the drug dilution series was transferred to 96-well assay plates. Assay plates were inoculated with 90 μL of bacterial suspensions and incubated at 35-37° C. for 20 hrs. The assay plates were read using a microtiter plate reader (Molecular Devices) at 600 nm as well as by visual observation with a reading mirror. The lowest concentration of the compound that prevented visible growth was recorded as the MIC. Performance of the assay was monitored by testing aztreonam against laboratory quality control strains in accordance with guidelines of the CLSI.

[1] = Escherichia coli, 25922, E. coli strain 25922, read-out: Ec 25922 (MIC)

Row | SMILES | MIC (E. coli containing KPC-2) [µg/mL] | MIC (E. coli strain 25922; [1]) [µg/mL] | MIC (E. coli strain 25922; Escherichia coli, 25922, read-out: Ec 25922 (MIC)) [µg/mL]
1 | CC(C)(O/N=C(\C(=O)N[C@@H]1C(=O)N(S(=O)(=O)O)[C@@H]1Cn1cnnc1)c1csc(N)n1)C(=O)O [Example 56, 2-(((Z)-(2-(((2R,3S)-2-((4H-1,2,4-triazol-4-yl)methyl)-4-oxo-1-sulfoazetidin-3-yl)amino)-1-(2-aminothiazol-4-yl)-2-oxoethylidene)amino)oxy)-2-methylpropanoic acid] | 16 (≈ 31.8 µM) | 4 (≈ 7.96 µM) | –
2 | N=C(NCCCN)NCc1cnn(C[C@@H]2[C@H](NC(=O)/C(=N\OC3(C(=O)O)CC3)c3csc(N)n3)C(=O)N2S(=O)(=O)O)n1 [Example 119, 1-(((Z)-(2-(((2R,3S)-2-((4-((3-(3-aminopropyl)guanidino)methyl)-2H-1,2,3-triazol-2-yl)methyl)-4-oxo-1-sulfoazetidin-3-yl)amino)-1-(2-aminothiazol-4-yl)-2-oxoethylidene)amino)oxy)cyclopropanecarboxylic acid] | 0.25 (≈ 0.398 µM) | 0.25 (≈ 0.398 µM) | –
3 | Nc1nc(/C(=N/OC2(C(=O)O)CC2)C(=O)N[C@@H]2C(=O)N(S(=O)(=O)O)[C@@H]2Cn2ncc(CNC3CCNCC3)n2)cs1 [Example 112, 1-(((Z)-(1-(2-aminothiazol-4-yl)-2-oxo-2-(((3S,4R)-2-oxo-4-((4-((piperidin-4-ylamino)methyl)-2H-1,2,3-triazol-2-yl)methyl)-1-sulfoazetidin-3-yl)amino)ethylidene)amino)oxy)cyclopropanecarboxylic acid] | 0.5 (≈ 0.816 µM) | 0.5 (≈ 0.816 µM) | –
4 | CC(C)(O/N=C(\C(=O)N[C@@H]1C(=O)N(S(=O)(=O)O)[C@@H]1CN1CCC1=O)c1csc(N)n1)C(=O)O [Example 113, 2-(((Z)-(1-(2-aminothiazol-4-yl)-2-oxo-2-(((3S,4R)-2-oxo-4-((2-oxoazetidin-1-yl)methyl)-1-sulfoazetidin-3-yl)amino)ethylidene)amino)oxy)-2-methylpropanoic acid] | 4 (≈ 7.93 µM) | 4 (≈ 7.93 µM) | –
5 | CC(C)(O/N=C(\C(=O)N[C@@H]1C(=O)N(S(=O)(=O)O)[C@@H]1Cn1ncc(C[N+]2(C)CCCC2)n1)c1csc(N)n1)C(=O)O [Example 36, (2R,3S)-3-((Z)-2-(2-aminothiazol-4-yl)-2-(((2-carboxypropan-2-yl)oxy)imino)acetamido)-2-((4-((1-methylpyrrolidin-1-ium-1-yl)methyl)-2H-1,2,3-triazol-2-yl)methyl)-4-oxoazetidine-1-sulfonate] | 1 | 2 | –
6 | CC(C)(O/N=C(\C(=O)N[C@@H]1C(=O)N(S(=O)(=O)O)[C@@H]1CN1CC[C@@H](N)C1=O)c1csc(N)n1)C(=O)O [Example 86, 2-(((Z)-(2-(((2R,3S)-2-(((R)-3-amino-2-oxopyrrolidin-1-yl)methyl)-4-oxo-1-sulfoazetidin-3-yl)amino)-1-(2-aminothiazol-4-yl)-2-oxoethylidene)amino)oxy)-2-methylpropanoic acid] | 1 (≈ 1.87 µM) | 1 (≈ 1.87 µM) | –
7 | N=C(NCCN)c1ccc(OC[C@H](O/N=C(\C(=O)N[C@@H]2C(=O)N(S(=O)(=O)O)[C@@H]2Cn2cncn2)c2csc(N)n2)C(=O)O)cc1 [Example 67, (S)-2-(((Z)-(2-(((2R,3S)-2-((1H-1,2,4-triazol-1-yl)methyl)-4-oxo-1-sulfoazetidin-3-yl)amino)-1-(2-aminothiazol-4-yl)-2-oxoethylidene)amino)oxy)-3-(4-(N-(2-aminoethyl)carbamimidoyl)phenoxy)propanoic acid] | 0.125 (≈ 0.188 µM) | 0.25 (≈ 0.376 µM) | –
8 | C[n+]1cccc(CNCc2cnn(C[C@@H]3[C@H](NC(=O)/C(=N\OC4(C(=O)O)CC4)c4csc(N)n4)C(=O)N3S(=O)(=O)O)n2)c1 [Example 137, (2R,3S)-3-((Z)-2-(2-aminothiazol-4-yl)-2-((1-carboxycyclopropoxy)-imino)acetamido)-2-((4-((((1-methylpyridin-1-ium-3-yl)methyl)amino)methyl)-2H-1,2,3-triazol-2-yl)methyl)-4-oxoazetidine-1-sulfonate] | 0.5 | 1 | –
9 | CC(C)(O/N=C(\C(=O)N[C@@H]1C(=O)N(S(=O)(=O)O)[C@@H]1Cn1ncc(CN)n1)c1csc(N)n1)C(=O)O [Example 52, 2-(((Z)-(2-(((2R,3S)-2-((4-(aminomethyl)-2H-1,2,3-triazol-2-yl)methyl)-4-oxo-1-sulfoazetidin-3-yl)amino)-1-(2-aminothiazol-4-yl)-2-oxoethylidene)amino)oxy)-2-methylpropanoic acid] | 1 (≈ 1.88 µM) | 0.5 (≈ 0.941 µM) | –
10 | N=C(NC1[C@H]2CNC[C@@H]12)c1ccc(OC[C@H](O/N=C(\C(=O)N[C@@H]2C(=O)N(S(=O)(=O)O)[C@@H]2Cn2cncn2)c2csc(N)n2)C(=O)O)cc1 (stereo partly drawn) [Example 81, (S)-2-(((Z)-(2-(((2R,3S)-2-((1H-1,2,4-triazol-1-yl)methyl)-4-oxo-1-sulfoazetidin-3-yl)amino)-1-(2-aminothiazol-4-yl)-2-oxoethylidene)amino)oxy)-3-(4-(N-((1R,5S,6s)-3-azabicyclo[3.1.0]hexan-6-yl)carbamimidoyl)phenoxy)propanoic acid] | 0.125 (≈ 0.178 µM) | – | 0.125 (≈ 0.178 µM)
11 | CC(C)(O/N=C(\C(=O)N[C@@H]1C(=O)N(S(=O)(=O)O)[C@@H]1CN1CC[C@H](NC(=N)N)C1=O)c1csc(N)n1)C(=O)O [Example 80, 2-(((Z)-(1-(2-aminothiazol-4-yl)-2-(((2R,3S)-2-(((S)-3-guanidino-2-oxopyrrolidin-1-yl)methyl)-4-oxo-1-sulfoazetidin-3-yl)amino)-2-oxoethylidene)amino)oxy)-2-methylpropanoic acid] | 4 (≈ 6.95 µM) | 4 (≈ 6.95 µM) | –
12 | CC(C)(O/N=C(\C(=O)N[C@@H]1C(=O)N(S(=O)(=O)O)[C@@H]1CN1C[C@@H](CN)OC1=O)c1csc(N)n1)C(=O)O [Example 57, 2-(((Z)-(2-(((2R,3S)-2-(((R)-5-(aminomethyl)-2-oxooxazolidin-3-yl)methyl)-4-oxo-1-sulfoazetidin-3-yl)amino)-1-(2-aminothiazol-4-yl)-2-oxoethylidene)amino)oxy)-2-methylpropanoic acid] | 1 (≈ 1.82 µM) | 0.5 (≈ 0.91 µM) | –
13 | C[N+](C)(C)CCCNCc1cnn(C[C@@H]2[C@H](NC(=O)/C(=N\OC3(C(=O)O)CC3)c3csc(N)n3)C(=O)N2S(=O)(=O)O)n1 [Example 123, 3-(((2-(((2R,3S)-3-((Z)-2-(2-aminothiazol-4-yl)-2-((1-carboxycyclopropoxy)imino)acetamido)-4-oxo-1-sulfoazetidin-2-yl)methyl)-2H-1,2,3-triazol-4-yl)methyl)amino)-N,N,N-trimethylpropan-1-aminium] | 0.5 | 1 | –
